Patent US9834549B2, “3,3-disubstituted-(8-aza-bicyclo[3.2.1]OCT-8-yl)-[5-(1H-pyrazol-4-yl)-thiophen-3-yl]-methanones as inhibitors of 11 (β)-HSD1” (The University Of Edinburgh, priority 2010, dated 2017)
Read-outs that look alike come from different tables or passages of the source.

Legend:
human 11β-HSD1 = biological target: T1, human 11β-HSD1 (Homo sapiens, UniProt P28845); assay: Cellular in vitro 11β-HSD1 enzyme inhibition assay (SPA, HEK293/11β-HSD1 cells); type: cell-based; details: HEK293, potency groups, read-out: IC50 for 11β-HSD1 (HEK293)
T1 construct: stably transfected with a construct containing the full-length gene coding for the human 11β-HSD1 enzyme; expressed in transfected cells; host or cells: HEK293 (stably transfected, HEK293/11β-HSD1)
T1 sequence (P28845 whole entry): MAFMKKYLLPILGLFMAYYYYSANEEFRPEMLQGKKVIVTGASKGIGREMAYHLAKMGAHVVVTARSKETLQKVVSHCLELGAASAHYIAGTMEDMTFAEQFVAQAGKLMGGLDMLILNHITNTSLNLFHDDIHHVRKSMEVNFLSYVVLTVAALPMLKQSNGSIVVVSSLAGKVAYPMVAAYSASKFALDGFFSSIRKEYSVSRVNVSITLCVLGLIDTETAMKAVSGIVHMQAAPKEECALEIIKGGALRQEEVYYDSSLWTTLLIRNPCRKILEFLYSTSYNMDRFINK
Description: Compounds were assessed by a Scintillation Proximity Assay (SPA) performed according to the following protocol:
HEK293 cells were stably transfected with a construct containing the full-length gene coding for the human 11β-HSD1 enzyme to create HEK293/11β-HSD1 cells. Cells were routinely cultured in DMEM containing 10% calf foetal serum, 1% glutamine, and 1% penicillin and streptomycin. Prior to assay, cells were plated at 2×10^4 cells/well in 96-well poly-D-Lys coated flat-bottomed microplates and incubated in 5% CO2, 95% O2 at 37° C. for 24 hours. The media in each well was removed immediately before assay.
Compounds to be tested were dissolved in DMSO at 10 mM and serially diluted into water containing 10% DMSO. Diluted compounds at a volume of 10 μL were added to wells of a 96-well V-bottomed microplate. A solution of DMEM, 1% glutamine, 1% penicillin and streptomycin, and 22 nM tritiated cortisone was prepared and 90 μL added to each well of the assay plate. This solution (100 μL/well) was transferred to the plate containing the cells. The plate was then incubated in 5% CO2, 95% O2 at 37° C. for 2 hours.
Following this incubation, 50 μL of the assay solution was transferred to each well of a 96-well scintillation microplate. A mixture consisting of anti-mouse YSi SPA beads, pre-mixed with anti-cortisol antibody in assay buffer (50 mM Tris.HCl, pH 7.0; 300 mM NaCl; 1 mM EDTA, 5% glycerol) was prepared and 50 μL added to each well of the scintillation microplate. An adhesive strip was applied to the microplate and the plate gently shaken for at least 2 hours at room temperature, and then spun briefly on a low speed centrifuge. The plate was read on a scintillation counter suitable for 96-well microplates. For the calculation of percentage inhibition, a series of wells were added to the plate that represented the assay maximum and the assay minimum: one set that contained substrate without cells (minimum) and another set that contained substrate and cells without any compound (maximum).
The calculation of median inhibitory concentration (IC50) values for the compounds was performed using GraphPad Prism® software. Dose-response curves for each compound were plotted as fractional inhibition and data fitted to the four parameter logistic equation.

[1] = In vitro human liver microsomal stability assay; type: in vitro ADME; details: human liver microsomes
Description: To predict in vivo metabolism of compounds, the stability of compounds incubated with human liver microsomes in vitro was determined. Human liver microsome preparations were stored at −80° C. and thawed on ice prior to use. The thawed microsomes were diluted to a concentration of 2 mg/mL in 50 mM sodium phosphate, pH 7.4. Reference and test compounds were prepared as 10 mM stocks in 100% DMSO and diluted to 1 mM in acetonitrile before use. Each compound was tested in triplicate as follows:
4 μL of test or reference compound was added to a well of a 24-well microplate and 0.5 mL of 4 mM NADPH added. The plate was then transferred to a shaker for 10 minutes at room temperature. 30 μL of the compound/NADPH solution was transferred to the well of a 96-well microplate and incubated at 37° C. for 5 minutes. 30 μL of human liver microsomes (pre-incubated at 37° C. for 5 minutes) was added to the well containing the compound/NADPH solution and the plate incubated for the selected period of time (typically 0 or 30 minutes). The reaction was stopped by adding 60 μL of ice cold […] trichloroacetic acid. The plate was centrifuged at 1000 rpm for 5 minutes at room temperature and the supernatant transferred to the well of a new 96-well V-bottomed microplate for mass spectrometric analysis.
Samples were analyzed by TSQ Quantum Discovery Tandem Mass Spectrometer and Surveyor Liquid Chromatogram (Thermo, Hemel-Hempstead, UK). 10 μL of each sample was injected in a mobile phase consisting of 60%:40% methanol:5 mM ammonium acetate at a flow rate of 0.5 mL/minute. The column used was a BDS hypersil, C18, 50×2.1 mm with a 5 μm particle size.
Each compound was tuned with a spray voltage of 3000 V and a capillary temperature of 300° C. and values for tube lens, CID and product ions were determined.
The peak area for each compound was measured in triplicate for the 0 and 30 minute samples and the average of each was reported. The percentage remaining after 30 minutes was calculated as the average peak area of the sample after 30 minutes divided by the average peak area at 0 minutes. The RSD was 10% or lower for each compound.

Structure (SMILES)	IC50 (human 11β-HSD1; μM)	IC50 (human 11β-HSD1)	% Parent Remaining at 30 min [1]
N#CC1(c2ncccn2)CC2CCC(C1)N2C(=O)c1csc(-c2cn[nH]c2)c1 (stereo not shown) [XX-26]	–	≤ 0.1 µM	–
O=C(c1csc(-c2cn[nH]c2)c1)N1C2CCC1CC(O)(c1cccnn1)C2 (stereo not shown) [XX-27]	–	≤ 0.1 µM	+++ (61-100% +++)
O=C(c1csc(-c2cn[nH]c2)c1)N1C2CCC1CC(O)(c1cccnn1)C2 (stereo not shown) [XX-28]	0.5 to 10 µM	–	–
Cc1csc(C2(O)CC3CCC(C2)N3C(=O)c2csc(-c3cn[nH]c3)c2)n1 (stereo not shown) [XX-30]	–	0.1 to 0.5 µM	–
Cc1cnc(C2(O)CC3CCC(C2)N3C(=O)c2csc(-c3cn[nH]c3)c2)s1 (stereo not shown) [XX-32]	–	≤ 0.1 µM	–
N#CC1(c2nccs2)CC2CCC(C1)N2C(=O)c1csc(-c2cn[nH]c2)c1 (stereo not shown) [XX-35]	–	≤ 0.1 µM	++ (31-60% ++)
O=C(c1csc(-c2cn[nH]c2)c1)N1C2CCC1CC(O)(c1ncco1)C2 (stereo not shown) [XX-37]	–	≤ 0.1 µM	+++ (61-100% +++)
Cn1ccnc1C1(O)CC2CCC(C1)N2C(=O)c1csc(-c2cn[nH]c2)c1 (stereo not shown) [XX-38]	0.5 to 10 µM	–	–
Cn1nccc1C1(O)CC2CCC(C1)N2C(=O)c1csc(-c2cn[nH]c2)c1 (stereo not shown) [XX-39]	–	0.1 to 0.5 µM	–
O=C(c1csc(-c2cn[nH]c2)c1)N1C2CCC1CC(O)(c1nc3ccccc3s1)C2 (stereo not shown) [XX-40]	–	0.1 to 0.5 µM	–
O=C(c1csc(-c2cn[nH]c2)c1)N1C2CCC1CC(F)(c1ncccc1F)C2 (stereo not shown) [XX-41]	–	≤ 0.1 µM	–
O=C(c1csc(-c2cn[nH]c2)c1)N1CCC(O)(c2ncc(Cl)cc2Cl)CC1 [YY-03]	–	0.1 to 0.5 µM	–
O=C(c1csc(-c2cn[nH]c2)c1)N1CCC(O)(c2ncccc2C(F)(F)F)CC1 [YY-04]	–	0.1 to 0.5 µM	–
CCc1ccc(Cl)c(C2(O)CCN(C(=O)c3csc(-c4cn[nH]c4)c3)CC2)n1 [YY-05]	–	0.1 to 0.5 µM	–
O=C(c1csc(-c2cn[nH]c2)c1)N1CCC(O)(c2ccncc2F)CC1 [YY-07]	–	0.1 to 0.5 µM	+++ (61-100% +++)
O=C(c1csc(-c2cn[nH]c2)c1)N1CCC(F)(c2ncccc2Cl)CC1 [YY-09]	–	0.1 to 0.5 µM	+++ (61-100% +++)

Further lines, with some results ahead:

IC50 (human 11β-HSD1; μM)	Structure (SMILES)	IC50 (human 11β-HSD1)	% Parent Remaining at 30 min [1]
0.5 to 10 µM	O=C(c1csc(-c2cn[nH]c2)c1)N1CCC(O)(c2ccccn2)CC1 [YY-01]	–	–
0.5 to 10 µM	O=C(c1csc(-c2cn[nH]c2)c1)N1CCC(O)(c2ncccc2F)CC1 [YY-08]	–	–
0.5 to 10 µM	O=C(c1csc(-c2cn[nH]c2)c1)N1CCC(O)(c2ncccn2)CC1 [YY-10]	–	–
0.5 to 10 µM	O=C(c1csc(-c2cn[nH]c2)c1)N1CCC(F)(c2ncccn2)CC1 [YY-11]	–	–
